In brackets after ≈: the same amount, converted by molar mass. Where a SMILES comes first, the peptide text is derived from it.
Experiments:
Listeria innocua 33090 [1] = test: colony overlay assay of peptide-secreting E. coli clones (library screening and re-test); format: cell-based; parameters: key: higher activity group (H); equal activity group (E); lower activity group (L); conditions: library screening; selected colonies pooled by zone size; peptides identified by 454 sequencing, full-length sequences with minimum 20 reads
Procedure, shortened: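 Pln-423 mutant library expressed periplasmically in leaky E. coli JE5505 (pFLAG-CTS); colonies grown 24 h at 37°C, then overlaid with TSB soft agar containing 1 mM IPTG and L. innocua ATCC 33090 (OD600 = 0.03) and incubated overnight at 30°C. Activity scored by inhibition-zone size versus wild-type Pln-423; hits re-tested after 4 h regrowth.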

Listeria innocua 33090 [2] = test: MIC determination / agar spot assay of synthetic peptides; format: cell-based
Method: Synthetic samples of wild-type Pln-423, two variants Pln-S23E and Pln-H28R/H34E from this study (Pln-4 and Pln-7 on Fig. 2), and another high-activity variant Pln-S27D/K36N (discovered during a pilot study, data not shown) were tested on agar plates at varying concentrations.
MICs were determined as previously described, [35]. Synthetic peptides were obtained from Peptide 2.0, Inc. (Chantilly, VA) and dissolved in 0.1% acetic acid/water solution at the final concentration of 2.5 mg/ml. Listeria innocua 33090 was grown in TSB until the turbidity of the culture match that of McFarland standard 0.5 (∼OD600 = 0.11) and diluted to final concentration of 5×10^5 cfu/ml in 20 ml TSB soft agar (1.2%) per plate. Two-fold serial dilutions (starting at 128 µg/ml) for each peptide was carried out in ultra-pure deionized water and 5 µl aliquots of each dilution were spotted on TSB plates. After the plates were incubated for 1 h at room temperature, they were placed at 37°C for overnight incubation. This experiment was performed in triplicate and the MIC was calculated as the lowest peptide concentration that formed a visible growth inhibition zone.

SMILES | activity group by size of inhibition zone compared to wild-type Pln-423 (Listeria innocua 33090 [1]) | MIC (Listeria innocua 33090 [2]; synthetic peptide, 5 µl of two-fold serial dilutions spotted on TSB soft agar (1.2%) with 5×10^5 cfu/ml, 1 h room temperature, then 18 h at 37°C, lowest concentration with visible inhibition zone, triplicate) [µM] | MIC fold higher compared to Pln-WT (Listeria innocua 33090 [2]; synthetic peptides) [fold] | MIC fold lower than wild-type Pln-423 (Listeria innocua 33090 [2]; synthetic peptides) [fold]
CC(C)C[C@H](NC(=O)[C@H](Cc1c[nH]cn1)NC(=O)[C@H](CO)NC(=O)[C@@H](NC(=O)[C@H](CO)NC(=O)[C@H](CS)NC(=O)[C@H](CCC(=O)O)NC(=O)[C@H](Cc1ccccc1)NC(=O)[C@H](C)NC(=O)[C@H](CCC(N)=O)NC(=O)CNC(=O)[C@H](Cc1c[nH]c2ccccc12)NC(=O)[C@H](CC(N)=O)NC(=O)[C@@H](NC(=O)[C@H](CO)NC(=O)[C@H](CS)NC(=O)[C@H](CO)NC(=O)[C@H](Cc1c[nH]cn1)NC(=O)[C@H](CCCCN)NC(=O)CNC(=O)[C@H](CS)NC(=O)[C@@H](NC(=O)[C@@H](NC(=O)CNC(=O)[C@H](CC(N)=O)NC(=O)CNC(=O)[C@H](Cc1ccc(O)cc1)NC(=O)[C@H](Cc1ccc(O)cc1)NC(=O)[C@@H](N)CCCCN)C(C)C)[C@@H](C)O)C(C)C)C(C)C)C(=O)N[C@@H](C)C(=O)N[C@@H](CC(N)=O)C(=O)N[C@@H](Cc1ccccc1)C(=O)NCC(=O)N[C@@H](Cc1c[nH]cn1)C(=O)NCC(=O)N[C@@H](CCCCN)C(=O)N[C@@H](CS)C(=O)O [PLN-S23E] (H-KYYGNGVTCGKHSCSVNWGQAFECSVSHLANFGHGKC-OH; N-terminus and C-terminus assumed) | H and L | 1 (≈ 3.98 µg/mL) | 13 | –
CC(C)C[C@H](NC(=O)[C@H](Cc1c[nH]cn1)NC(=O)[C@H](CC(=O)O)NC(=O)[C@@H](NC(=O)[C@H](CO)NC(=O)[C@H](CS)NC(=O)[C@H](CO)NC(=O)[C@H](Cc1ccccc1)NC(=O)[C@H](C)NC(=O)[C@H](CCC(N)=O)NC(=O)CNC(=O)[C@H](Cc1c[nH]c2ccccc12)NC(=O)[C@H](CC(N)=O)NC(=O)[C@@H](NC(=O)[C@H](CO)NC(=O)[C@H](CS)NC(=O)[C@H](CO)NC(=O)[C@H](Cc1c[nH]cn1)NC(=O)[C@H](CCCCN)NC(=O)CNC(=O)[C@H](CS)NC(=O)[C@@H](NC(=O)[C@@H](NC(=O)CNC(=O)[C@H](CC(N)=O)NC(=O)CNC(=O)[C@H](Cc1ccc(O)cc1)NC(=O)[C@H](Cc1ccc(O)cc1)NC(=O)[C@@H](N)CCCCN)C(C)C)[C@@H](C)O)C(C)C)C(C)C)C(=O)N[C@@H](C)C(=O)N[C@@H](CC(N)=O)C(=O)N[C@@H](Cc1ccccc1)C(=O)NCC(=O)N[C@@H](Cc1c[nH]cn1)C(=O)NCC(=O)N[C@@H](CC(N)=O)C(=O)N[C@@H](CS)C(=O)O [PLN-S27D/K36N] (H-KYYGNGVTCGKHSCSVNWGQAFSCSVDHLANFGHGNC-OH; N-terminus and C-terminus assumed) | – | – | – | 2

Reference: publication PMC3602187, “From Design to Screening: A New Antimicrobial Peptide Discovery Pipeline” (PLoS ONE, 2013)
